Columns and labels:
Lip3 = target: T1, Lip3 (Paenibacillus polymyxa, UniProt A0ABX2ZB39); assay: p-nitrophenol release, […] nm, […] h; type: cell-based; conditions: enzyme displayed on spores (immobilised), OD600 1; 1 mM substrate; 50 mM Tris-HCl pH 7.5; 4-70 °C
T1 construct: gene A7312_04500; fused via GGGGGSGGGGG linker to P. polymyxa CotE spore-coat anchor; gene amplified from DSM 365 genome (CP141264); printed NF024107.3 is a family model
T1 sequence (A0ABX2ZB39 1-335): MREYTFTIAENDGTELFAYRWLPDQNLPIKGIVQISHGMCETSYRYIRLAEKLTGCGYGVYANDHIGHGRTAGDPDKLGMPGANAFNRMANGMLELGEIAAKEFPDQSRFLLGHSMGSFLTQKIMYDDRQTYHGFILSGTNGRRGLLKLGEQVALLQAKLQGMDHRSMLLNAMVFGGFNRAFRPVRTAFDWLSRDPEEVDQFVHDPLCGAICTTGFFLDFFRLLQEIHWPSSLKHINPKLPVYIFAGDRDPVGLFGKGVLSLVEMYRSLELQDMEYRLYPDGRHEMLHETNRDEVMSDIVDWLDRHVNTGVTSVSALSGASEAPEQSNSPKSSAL

[1] = p-nitrophenol release, […] nm, […] h; type: cell-based, Paenibacillus polymyxa; conditions: enzyme displayed on spores (immobilised), OD600 1; 1 mM substrate; 50 mM Tris-HCl pH 7.5; 4-70 °C; side activity of the synthase

CCCCCCCC(=O)Oc1ccc([N+](=O)[O-])cc1 [C8, 4-Nitrophenyl-octanoate]
p-nitrophenol release, 410 nm, 1 h (Lip3): The displayed Lip3 showed higher hydrolysis activity with rising temperature
p-nitrophenol release, 410 nm, 1 h [1]: this enzyme showed hydrolytic activity for p-nitrophenyl caprylate (pNPC, C8)

— paper PMC11278568, “Implementation of Spore Display in Paenibacillus polymyxa with Different Hydrolytic Enzymes” (Microorganisms, 2024)
